Reference: ChEMBL document CHEMBL4265951, “Multi-target-directed ligands for Alzheimer's disease: Discovery of chromone-based monoamine oxidase/cholinesterase inhibitors” (Eur J Med Chem, 2018)
Activity calls are given as the source filed them. The calls are words filed in the database; no cut-off is given here.

Experiments:
[1] = biological target: T1, Amine oxidase [flavin-containing] A (Homo sapiens, UniProt P21397); experiment: Inhibition of human recombinant microsomal MAOA expressed in baculovirus infected BTI-TN-5B1- 4 cells using p-tyramine as substrate assessed as decrease in H2O2 production at 100 uM by amplex red-based fluorescence assay
T1 sequence (P21397 whole entry): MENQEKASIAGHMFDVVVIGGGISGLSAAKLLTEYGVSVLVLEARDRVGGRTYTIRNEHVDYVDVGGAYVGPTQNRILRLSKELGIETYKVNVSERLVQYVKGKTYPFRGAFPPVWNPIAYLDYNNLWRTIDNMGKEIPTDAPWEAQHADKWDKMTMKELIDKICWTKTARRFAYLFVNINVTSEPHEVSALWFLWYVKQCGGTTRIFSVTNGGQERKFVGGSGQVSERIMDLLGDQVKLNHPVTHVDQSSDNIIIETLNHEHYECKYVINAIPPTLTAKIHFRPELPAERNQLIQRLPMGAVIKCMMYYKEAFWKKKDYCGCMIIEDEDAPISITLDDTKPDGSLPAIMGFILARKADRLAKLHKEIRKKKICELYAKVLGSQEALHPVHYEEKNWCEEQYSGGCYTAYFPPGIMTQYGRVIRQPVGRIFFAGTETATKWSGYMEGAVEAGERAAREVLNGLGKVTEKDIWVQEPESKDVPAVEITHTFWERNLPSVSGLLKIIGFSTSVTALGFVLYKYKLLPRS

in vitro [2] = conditions: PAMPA
Description: Effective permeability of the compound at 1 mg/ml after 4 hrs by BBB-PAMPA method

in vitro [3] = conditions: PAMPA; remark: listed apart in the source
Description: Effective permeability of the compound at 25 ug/ml after 18 hrs by BBB-PAMPA method

Acetylcholinesterase [4] = biological target: T2, Acetylcholinesterase (Homo sapiens, UniProt P22303); experiment: Inhibition of human AChE using acetylthiocholine iodide as substrate pretreated for 5 mins followed by substrate addition measured after 5 mins by Ellman's method
T2 sequence (P22303 whole entry): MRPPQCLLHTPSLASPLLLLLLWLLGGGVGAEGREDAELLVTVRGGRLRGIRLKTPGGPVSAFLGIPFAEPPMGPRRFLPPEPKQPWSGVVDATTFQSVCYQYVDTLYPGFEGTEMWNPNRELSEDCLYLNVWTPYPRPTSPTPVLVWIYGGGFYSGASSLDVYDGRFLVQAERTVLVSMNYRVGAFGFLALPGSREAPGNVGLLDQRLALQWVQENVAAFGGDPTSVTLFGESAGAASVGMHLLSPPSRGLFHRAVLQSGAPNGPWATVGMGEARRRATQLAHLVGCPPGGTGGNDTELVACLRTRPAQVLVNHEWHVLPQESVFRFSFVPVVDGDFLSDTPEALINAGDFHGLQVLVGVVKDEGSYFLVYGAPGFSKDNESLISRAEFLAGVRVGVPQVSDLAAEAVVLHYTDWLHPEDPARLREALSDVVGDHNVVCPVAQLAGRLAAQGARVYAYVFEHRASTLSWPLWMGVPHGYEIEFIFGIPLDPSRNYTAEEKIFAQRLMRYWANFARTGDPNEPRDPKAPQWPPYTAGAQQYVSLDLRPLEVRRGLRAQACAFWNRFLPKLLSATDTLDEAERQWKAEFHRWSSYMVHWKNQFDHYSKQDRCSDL

HepG2 [5] = experiment: Cytotoxicity against human HepG2 cells assessed as reduction in cell viability at 0.1 to 50 uM after 48 hrs by SRB assay; assay type: cell-based; conditions: hepg2, 48 h
[6] = biological target: T3, Amine oxidase [flavin-containing] B (Homo sapiens, UniProt P27338); experiment: Competitive inhibition of human recombinant microsomal MAOB expressed in baculovirus infected BTI-TN-5B1- 4 cells using p-tyramine as substrate assessed as decrease in H2O2 production at 500 to 1000 nM by Lineweaver-Burk plot analysis
T3 sequence (P27338 whole entry): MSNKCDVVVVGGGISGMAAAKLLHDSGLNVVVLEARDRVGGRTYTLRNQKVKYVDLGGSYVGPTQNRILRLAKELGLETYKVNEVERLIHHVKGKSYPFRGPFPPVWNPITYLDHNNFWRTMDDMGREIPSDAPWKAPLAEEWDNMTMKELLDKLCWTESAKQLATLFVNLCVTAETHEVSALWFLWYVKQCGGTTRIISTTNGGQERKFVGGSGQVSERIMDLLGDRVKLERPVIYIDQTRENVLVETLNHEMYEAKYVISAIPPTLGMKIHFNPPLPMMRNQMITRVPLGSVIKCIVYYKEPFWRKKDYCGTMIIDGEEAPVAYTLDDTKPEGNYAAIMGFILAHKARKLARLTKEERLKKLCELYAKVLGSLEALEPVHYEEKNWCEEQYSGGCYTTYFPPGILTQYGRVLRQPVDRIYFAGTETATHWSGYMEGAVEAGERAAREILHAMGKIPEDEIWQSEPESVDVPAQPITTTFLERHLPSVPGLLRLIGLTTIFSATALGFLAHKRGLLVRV

[7] = biological target: T3, Amine oxidase [flavin-containing] B; experiment: biochemical; assay type: cell-based
Description: Inhibition of human recombinant MAOB expressed in baculovirus infected BTI-TN-5B1- 4 cells using p-tyramine as substrate assessed as decrease in H2O2 production by amplex red-based fluorescence assay

HepG2 [8] = experiment: Cytotoxicity against human HepG2 cells assessed as reduction in cell viability at 0.1 to 50 uM after 48 hrs by resazurin reduction assay; assay type: cell-based; conditions: hepg2, 48 h
SH-SY5Y [9] = experiment: Cytotoxicity against human SH-SY5Y cells assessed as reduction in cell viability at 0.1 to 50 uM after 48 hrs by SRB assay; assay type: cell-based
[10] = biological target: T3, Amine oxidase [flavin-containing] B; experiment: Reversible competitive inhibition of human recombinant microsomal MAOB expressed in baculovirus infected BTI-TN-5B1- 4 cells using p-tyramine as substrate assessed as decrease in H2O2 production by Dixon plot analysis
Cholinesterase [11] = biological target: T4, Cholinesterase (Homo sapiens, UniProt P06276); experiment: Inhibition of human serum BuChE using butyrylthiocholine as substrate pretreated for 5 mins followed by substrate addition measured after 5 mins by Ellman's method
T4 sequence (P06276 whole entry): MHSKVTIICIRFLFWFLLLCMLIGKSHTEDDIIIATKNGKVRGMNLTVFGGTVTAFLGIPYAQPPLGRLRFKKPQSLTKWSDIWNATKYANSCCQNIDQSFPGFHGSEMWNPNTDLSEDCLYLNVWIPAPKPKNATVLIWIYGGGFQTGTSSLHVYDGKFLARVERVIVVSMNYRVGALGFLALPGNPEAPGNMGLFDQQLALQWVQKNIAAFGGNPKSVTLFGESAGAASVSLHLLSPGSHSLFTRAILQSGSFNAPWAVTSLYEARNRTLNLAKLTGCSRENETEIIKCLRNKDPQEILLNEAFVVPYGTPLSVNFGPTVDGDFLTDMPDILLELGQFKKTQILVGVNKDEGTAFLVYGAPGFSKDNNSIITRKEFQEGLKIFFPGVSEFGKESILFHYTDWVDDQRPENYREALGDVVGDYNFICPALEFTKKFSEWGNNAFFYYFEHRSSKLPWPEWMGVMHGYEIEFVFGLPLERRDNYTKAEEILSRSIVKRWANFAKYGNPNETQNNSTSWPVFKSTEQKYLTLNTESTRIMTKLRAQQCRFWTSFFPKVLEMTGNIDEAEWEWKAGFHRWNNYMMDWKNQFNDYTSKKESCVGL

SH-SY5Y [12] = experiment: Cytotoxicity against human SH-SY5Y cells assessed as reduction in cell viability at 0.1 to 50 uM after 48 hrs by resazurin reduction assay; assay type: cell-based
Beta-secretase 1 = Beta-secretase 1 (Homo sapiens, UniProt P56817); experiment: Inhibition of human BACE1 using rhodamine-EVNLDAEFK-quencher as substrate after 60 mins by FRET assay
Sequence of Beta-secretase 1 (P56817 whole entry): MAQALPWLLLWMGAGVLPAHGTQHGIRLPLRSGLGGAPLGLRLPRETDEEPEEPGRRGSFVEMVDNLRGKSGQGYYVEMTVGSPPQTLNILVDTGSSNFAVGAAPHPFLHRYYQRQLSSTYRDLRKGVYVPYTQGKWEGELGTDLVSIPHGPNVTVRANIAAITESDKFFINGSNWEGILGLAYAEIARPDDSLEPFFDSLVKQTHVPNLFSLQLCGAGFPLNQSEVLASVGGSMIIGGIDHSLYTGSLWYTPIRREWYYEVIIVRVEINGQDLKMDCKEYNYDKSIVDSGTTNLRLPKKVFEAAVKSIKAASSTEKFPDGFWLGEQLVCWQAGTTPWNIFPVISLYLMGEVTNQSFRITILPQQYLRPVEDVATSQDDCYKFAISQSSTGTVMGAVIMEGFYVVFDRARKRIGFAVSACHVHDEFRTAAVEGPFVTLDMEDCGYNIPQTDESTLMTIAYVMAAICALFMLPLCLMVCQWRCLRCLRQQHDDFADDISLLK

[13] = biological target: T1, Amine oxidase [flavin-containing] A; experiment: Inhibition of human recombinant microsomal MAOA expressed in baculovirus infected BTI-TN-5B1- 4 cells using p-tyramine as substrate assessed as decrease in H2O2 production at 10 uM by amplex red-based fluorescence assay
[14] = biological target: T1, Amine oxidase [flavin-containing] A; experiment: Reversible competitive inhibition of human recombinant microsomal MAOA expressed in baculovirus infected BTI-TN-5B1- 4 cells using p-tyramine as substrate assessed as decrease in H2O2 production by Dixon plot analysis
[15] = biological target: T1, Amine oxidase [flavin-containing] A; experiment: Competitive inhibition of human recombinant microsomal MAOA expressed in baculovirus infected BTI-TN-5B1- 4 cells using p-tyramine as substrate assessed as decrease in H2O2 production at 1000 to 2000 nM by Lineweaver-Burk plot analysis
Acetylcholinesterase [16] = biological target: T2, Acetylcholinesterase; experiment: Mixed type inhibition of human AChE at 0.05 to 0.20 uM using acetylthiocholine iodide as substrate pretreated for 5 mins followed by substrate addition measured after 5 mins by Lineweaver burk plot analysis
SH-SY5Y [17] = experiment: Cytotoxicity against human SH-SY5Y cells assessed as reduction in cell viability at 25 to 50 uM after 48 hrs by resazurin reduction assay; assay type: cell-based
[18] = biological target: T1, Amine oxidase [flavin-containing] A; experiment: biochemical
Description: Inhibition of human recombinant microsomal MAOA expressed in baculovirus infected BTI-TN-5B1- 4 cells using p-tyramine as substrate assessed as decrease in H2O2 production by amplex red-based fluorescence assay

Acetylcholinesterase [19] = biological target: T2, Acetylcholinesterase; experiment: Mixed type inhibition of human AChE using acetylthiocholine iodide as substrate pretreated for 5 mins followed by substrate addition measured after 5 mins by Dixon plot analysis
[20] = biological target: T1, Amine oxidase [flavin-containing] A; experiment: Reversible inhibition of human recombinant microsomal MAOA expressed in baculovirus infected BTI-TN-5B1- 4 cells using p-tyramine as substrate assessed as decrease in H2O2 production at IC80 after 60 mins; conditions: 1 h
[21] = Cytotoxicity against human SH-SY5Y cells assessed as cell mass at 50 uM after 48 hrs by SRB assay relative to control; assay type: cell-based; conditions: read-out: Activity
Cholinesterase [22] = biological target: T4, Cholinesterase; experiment: Inhibition of human serum BuChE at 10 uM using butyrylthiocholine as substrate pretreated for 5 mins followed by substrate addition measured after 5 mins by Ellman's method

Compound	Papp at 4 h, 1 mg/ml (in vitro [2])	IC50 (Acetylcholinesterase [4])	Activity (HepG2 [5])	inhibition (INH) [6]	IC50 [7]	Activity (HepG2 [8])	Activity (SH-SY5Y [9])	Ki [10]	Activity (SH-SY5Y [12])	IC50 (Beta-secretase 1)	inhibition (INH) [13]	inhibition (Cholinesterase [22])	also measured
C[C@H](NCc1ccc(OCc2cccc(F)c2)cc1)C(N)=O [SAFINAMIDE]	–	–	–	–	–	–	–	–	–	–	–	–	inhibition (INH) [1]: Not Active
C[C@]12CCC(=O)C=C1CC[C@@H]1[C@@H]2[C@@H](O)C[C@]2(C=O)[C@@H](C(=O)CO)CC[C@@H]12 [ALDOSTERONE]	1 ×10⁻⁶ cm/s	–	–	–	–	–	–	–	–	–	–	–	Papp at 18 h, 25 ug/ml (in vitro [3]): 1.2 ×10⁻⁶ cm/s
CN(C)CCOC(=O)/C=C/c1ccc2occ(C(=O)Nc3ccccc3)c(=O)c2c1	6.4 ×10⁻⁶ cm/s	3690 nM	Non-Toxic	Active	630 nM	Non-Toxic	Non-Toxic	337 nM	Non-Toxic	> 10000 nM	Not Active	–	IC50 (Cholinesterase [11]): 4320 nM
Cc1ccc(NC(=O)c2cc(=O)c3cc(/C=C/C(=O)OCCN(C)C)ccc3o2)cc1	5.2 ×10⁻⁶ cm/s	210 nM	–	Active	3810 nM	–	–	478 nM	–	> 10000 nM	–	inactive	Ki [14]: 57 nM; inhibition (INH) [15]: Active; inhibition (Acetylcholinesterase [16]): Active; Activity (SH-SY5Y [17]): Toxic; IC50 [18]: 940 nM; Ki (Acetylcholinesterase [19]): 190 nM; inhibition (INH) [20]: Active; viability at 48 h, 50 µM [21]: 44%
O=C(O)/C=C/c1ccc2occ(C(=O)Nc3ccccc3)c(=O)c2c1	1.2 ×10⁻⁶ cm/s	9250 nM	Non-Toxic	–	4660 nM	Non-Toxic	Non-Toxic	–	Non-Toxic	> 10000 nM	Not Active	inactive	–
